This note sets out measurements from ChEMBL document CHEMBL3352750, “Novel indole based NNRTIs with improved potency against wild type and resistant HIV” (Bioorg Med Chem Lett, 2014).

Data set [1] deals with Human immunodeficiency virus 1. In words: Antiviral activity against HIV1 infected in HEK293T cells by p24 ELISA based phenotypic assay. In kind it is functional, organism-based. As to conditions: Human immunodeficiency virus 1, HEK-293T. Background: ELISA stands for enzyme-linked immunosorbent assay.
The nature of data set [2]: Cytotoxicity against HEK293T cells. As to conditions: human. In kind it is cell-based, HEK-293T.
The subject of data set [3] is Human immunodeficiency virus 1. As to the kind of experiment: Antiviral activity against HIV1. The class given is functional, organism-based.
Data set [4] has as its system Human immunodeficiency virus 1. In words: Antiviral activity against HIV1 containing reverse transcriptase G190A mutant infected in HEK293T cells by p24 ELISA based phenotypic assay. In kind it is functional, organism-based. Particulars: HEK-293T.
The subject of data set [5] is Human immunodeficiency virus 1. As to the kind of experiment: Antiviral activity against HIV1 containing reverse transcriptase Y181C mutant infected in HEK293T cells by p24 ELISA based phenotypic assay. In kind it is functional, organism-based. As to conditions: HEK-293T.
Data set [6] concerns Human immunodeficiency virus 1. In words: Antiviral activity against HIV1 containing reverse transcriptase V106M mutant infected in HEK293T cells by p24 ELISA based phenotypic assay. Particulars: HEK-293T. The class given is functional, organism-based.
Data set [7] deals with Human immunodeficiency virus 1. As to the kind of experiment: Antiviral activity against HIV1 containing reverse transcriptase K101P mutant infected in HEK293T cells by p24 ELISA based phenotypic assay. Particulars: HEK-293T. In kind it is functional, organism-based.
The test system of data set [8] is Human immunodeficiency virus 1. In words: Antiviral activity against HIV1 containing reverse transcriptase K103N mutant infected in HEK293T cells by p24 ELISA based phenotypic assay. In kind it is functional, organism-based. Particulars: HEK-293T.
The test system of data set [9] is Human immunodeficiency virus 1. As to the kind of experiment: Antiviral activity against HIV1 containing reverse transcriptase E138Q mutant infected in HEK293T cells by p24 ELISA based phenotypic assay. In kind it is functional, organism-based. As to conditions: HEK-293T.
For data set [10], the system named is Human immunodeficiency virus 1. In words: Antiviral activity against HIV1 containing reverse transcriptase M230I mutant infected in HEK293T cells by p24 ELISA based phenotypic assay. As to conditions: HEK-293T. The class given is functional, organism-based.
For data set [11], the system named is Human immunodeficiency virus 1. As to the kind of experiment: Antiviral activity against HIV1 containing reverse transcriptase Y181I mutant infected in HEK293T cells by p24 ELISA based phenotypic assay. The class given is functional, organism-based. As to conditions: HEK-293T.

SMILES strings stand for the structures. The source made the active and inactive calls. No cut-off for these calls is given here.

The term IC50 denotes the concentration at which inhibition is half-maximal. In general, CC50 refers to the concentration that lowers cell viability or growth by half. A higher CC50 goes with lower toxicity to the cells. `CCOC(=O)c1[nH]c2ccc(Cl)cc2c1C(O)c1ccccc1` (centres undefined): in data set [1], half-maximal inhibition (IC50) was put at 1150 nM. The CC50 in data set [2] is 22700 nM.

For `CCOC(=O)c1[nH]c2ccc(Cl)cc2c1C(OCC)c1ccccc1` (centres undefined), inhibition in data set [1] was half-maximal at 30 nM (IC50). Besides, the CC50 in data set [2] amounted to 22800 nM.

The compound `O=C(NCCO)c1[nH]c2ccc(Cl)cc2c1C1(c2ccccc2)CC1` displayed an IC50 in data set [1] of 209 nM.

As for `CCOC(=O)c1[nH]c2ccc(Cl)cc2c1C1(c2cccs2)CC1`, 65 nM corresponded to half-maximal inhibition in data set [3] (IC50).

Compound `COC(c1ccccc1)c1c(S(=O)(=O)C(F)(F)F)[nH]c2ccc(Cl)cc12` (centres undefined) gave an IC50 in [1] of 1200 nM. For the same compound, in data set [2], the CC50 was found to be 24200 nM.

For `CCOC(=O)c1[nH]c2ccc(Cl)cc2c1C(OC)c1cc(C)cc(C)c1` (centres undefined), the inhibition result in data set [4], in data set [6], in [7], in data set [8], in data set [9] and in data set [10] was “Active” in each case. For the same compound, in data set [11], the inhibition entry was “Active”. Further, in data set [5], the inhibition result is “inactive”. This compound yielded an IC50 in data set [1] of 30 nM. The CC50 in [2] was found to be 36500 nM.

Compound `NNC(=O)c1[nH]c2ccc(Cl)cc2c1C1(c2ccccc2)CC1` registered a 50% inhibitory concentration (IC50) in data set [1] of 4400 nM.

For the compound `COC(c1cc(C)cc(C)c1)c1c[nH]c2ccc(Cl)cc12` (centres undefined), in data set [1], half-maximal inhibition (IC50) required 300 nM. In data set [2], this compound displayed a CC50 of 67700 nM.

For the compound `Cc1ccnc2c1NC(=O)c1cccnc1N2C1CC1` [NEVIRAPINE], the IC50 in data set [3] is 100 nM; in data set [1], 120 nM.

Regarding `CCOC(=O)c1[nH]c2ccc(Cl)cc2c1C1(c2ccccc2)CC1`, the IC50 in [3] stood at 85 nM; in data set [1], 4800 nM.

As for `O=C(OCCO)c1[nH]c2ccc(Cl)cc2c1C1(c2ccccc2)CC1`, in [1], the IC50 worked out at 712 nM.

In the case of `CCOC(=O)c1[nH]c2ccc(Cl)cc2c1C(OC)c1ccccc1` (centres undefined), the inhibition result in data set [4] was “Active”. Also, the inhibition entry in [5], in data set [6] and in data set [8] was “inactive” each time. The compound further gave an IC50 in data set [1] of 20 nM. It took 25300 nM to reach half-maximal cytotoxicity in data set [2] (CC50).

The compound `COC(c1ccccc1)c1c[nH]c2ccc(Cl)cc12` (centres undefined) came in with an IC50 in [1] of 2430 nM. This compound showed a CC50 in data set [2] of 67000 nM.
